# In patent EP0259838A2, “Pharmaceutical composition containing A 1,4-dihydropyridine derivative and an acylated 1,2,3,4-tetrahydroisoquinoline-3-carboxylic acid” (priority 1986, dated 1988):
# Tests used:
# [1] = tested on: Renal Hypertensive Rats; experiment: Antihypertensive activity in renal hypertensive rats (tail-cuff systolic blood pressure and heart rate); assay type: in vivo, rats (Male Sprague-Dawley); settings: single dose po, nicardipine 3 mg/kg, ACE inhibitor 10 mg/kg, combination 3 + 10 mg/kg, n = 6
# Method: Twenty-four renal hypertensive rates (Male Sprague-Dawley, 140-170g) showing systolic blood pressure of 160 mmHg or greater were chosen for the study. Using the random block design, they were distributed into four groups: 3 groups for compound treatments and one for vehicle control. They were randomly assigned to the treatments. The test compounds were dissolved in deionized water at concentrations such that 1.0 ml of solution was administered per 100 grams of body weight.
# At approximately 17 hours prior to dosing, food was removed from the rat cages. On the morning of testing, the rats were dosed with the assigned compound or vehicle by gavage. Immediately after dosing, the rats were put in restrainers and placed in a heated chamber, 30 degrees centrigrade, for four hours. After the four hour reading, the rats were returned to their home cage for 3 hours and then were put in the restrainer again for the hour 8 reading.
# Using a tail blood pressure cuff, blood pressure curves and tail pulses were simultaneously monitored on a 4-channel MFE recorder digitized by a computer system. At least four consecutive traces (at 30 second intervals) were recorded for each rat at 1, 2, 4 and 8 hour post-dose.
# The computer system has been programmed to find systolic blood pressure (mmHg) and heart rate (beats/min) for each recording and them calculate the mean SBP and the mean HR of each rat at each observation time. Manual editing and confirmation of the analyses were carried out by the investigator on any systolic blood pressure traces that were more than two standard deviations outside the mean blood pressure readings for that animal at a given time period.
# The SBP's of the animals in each dose group were compared to the SBP's of the animals in the control group at each observation time using oneway analysis of variance. Significance was determined using the Dunnet test.
# [2] = tested on: CD rats; settings: rat, in vivo; cited from earlier work
SMILES,HR % Chg (Chg from Control) ([1]; 1 Hr post-dose) [%],HR b/min. Chg (Chg from Control) ([1]; 1 Hr post-dose) [b/min.],SBP % Chg (Chg from Control) ([1]; 1 Hr post-dose) [%],SBP mmHg Chg (Chg from Control) ([1]; 1 Hr post-dose) [mmHg],HR % Chg (Chg from Control) ([1]; 2 Hr post-dose) [%],HR b/min. Chg (Chg from Control) ([1]; 2 Hr post-dose) [b/min.],SBP % Chg (Chg from Control) ([1]; 2 Hr post-dose) [%],SBP mmHg Chg (Chg from Control) ([1]; 2 Hr post-dose) [mmHg],HR % Chg (Chg from Control) ([1]; 4 Hr post-dose) [%],HR b/min. Chg (Chg from Control) ([1]; 4 Hr post-dose) [b/min.],SBP % Chg (Chg from Control) ([1]; 4 Hr post-dose) [%],SBP mmHg Chg (Chg from Control) ([1]; 4 Hr post-dose) [mmHg],HR % Chg (Chg from Control) ([1]; 8 Hr post-dose) [%],HR b/min. Chg (Chg from Control) ([1]; 8 Hr post-dose) [b/min.],SBP % Chg (Chg from Control) ([1]; 8 Hr post-dose) [%],SBP mmHg Chg (Chg from Control) ([1]; 8 Hr post-dose) [mmHg],clinical sign noted previously in studies in rats [2]
"CCOC(=O)[C@H](CCc1ccccc1)N[C@@H](C)C(=O)N1Cc2cc(OC)c(OC)cc2C[C@H]1C(=O)O [2-{2-[(1-ethoxycarbonyl)-3-phenylpropyl]amino}-1-oxopropyl-1,2,3,4-tetrahydro-6,7-dimethoxy-3-isoquinoline carboxylic acid]",29,87,-8,-14,4,11,-7,-13,4,10,3,4,-11,-33,-7,-12,–
"COC(=O)C1=C(C)NC(C)=C(C(=O)OCCN(C)Cc2ccccc2)C1c1cccc([N+](=O)[O-])c1 (stereo not drawn) [nicardipine, 2,6-dimethyl-4-(3ʹ-nitrophenyl)-1,4-dihydropyridine-3,5-dicarboxylic acid-3-methyl ester-5-β-(N-benzyl-N-methylamino)-ethyl ester]",22,65,-3,-5,10,30,-4,-7,9,25,-6,-10,-2,-4,-20,-35,pink skin (peripheral vasodilation)
